{"source": "patent US10766903B2", "about": "(ALMAC DISCOVERY LIMITED, priority 2016, dated 2020)"}
{"biological_target": "USP7 (Homo sapiens (Human), UniProt Q93009)", "sequence (Q93009 whole entry)": "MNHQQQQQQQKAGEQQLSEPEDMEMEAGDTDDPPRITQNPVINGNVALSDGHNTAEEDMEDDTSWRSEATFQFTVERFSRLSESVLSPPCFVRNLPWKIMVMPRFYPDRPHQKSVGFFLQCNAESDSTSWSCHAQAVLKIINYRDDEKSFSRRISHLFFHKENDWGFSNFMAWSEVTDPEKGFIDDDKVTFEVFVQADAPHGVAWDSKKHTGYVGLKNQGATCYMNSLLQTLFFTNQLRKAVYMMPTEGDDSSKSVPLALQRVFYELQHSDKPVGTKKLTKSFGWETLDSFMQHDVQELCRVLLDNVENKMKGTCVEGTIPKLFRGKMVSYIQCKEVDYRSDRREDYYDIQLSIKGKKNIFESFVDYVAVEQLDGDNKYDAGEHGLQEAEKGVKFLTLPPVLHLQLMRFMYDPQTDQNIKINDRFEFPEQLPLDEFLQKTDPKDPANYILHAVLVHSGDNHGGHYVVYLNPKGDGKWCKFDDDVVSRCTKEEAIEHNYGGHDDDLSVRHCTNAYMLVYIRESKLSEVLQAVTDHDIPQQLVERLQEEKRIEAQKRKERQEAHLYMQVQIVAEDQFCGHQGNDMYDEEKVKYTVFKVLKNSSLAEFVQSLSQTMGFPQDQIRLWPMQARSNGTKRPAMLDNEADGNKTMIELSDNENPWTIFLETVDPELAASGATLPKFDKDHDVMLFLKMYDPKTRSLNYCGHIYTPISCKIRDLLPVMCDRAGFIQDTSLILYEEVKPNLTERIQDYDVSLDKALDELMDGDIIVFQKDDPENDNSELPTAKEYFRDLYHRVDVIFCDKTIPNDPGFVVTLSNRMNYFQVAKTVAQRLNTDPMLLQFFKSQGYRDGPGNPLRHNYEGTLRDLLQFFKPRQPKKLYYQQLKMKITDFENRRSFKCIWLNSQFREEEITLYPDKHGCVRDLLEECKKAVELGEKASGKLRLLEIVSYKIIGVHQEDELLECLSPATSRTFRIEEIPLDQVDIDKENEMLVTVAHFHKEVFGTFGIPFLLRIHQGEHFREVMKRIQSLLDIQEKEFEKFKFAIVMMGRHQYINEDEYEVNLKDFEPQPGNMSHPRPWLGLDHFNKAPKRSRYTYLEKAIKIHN", "assay": "USP7 fluorescence polarisation (FP) biochemical assay, ubiquitin-Lys-TAMRA substrate", "conditions": "Table 4, biochemical assay; average of at least duplicate experiments; read-out: USP7 IC50", "outline": "(§1)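 Full-length His6-USP7 (2.5 nM) incubated ± inhibitor (8-point dilutions, 200 to 0.1 μM before addition) in 50 mM HEPES pH 7.2, 150 mM NaCl, 0.5 mM EDTA, 5 mM DTT, 0.05% BSA, 0.05% CHAPS. Ubiquitin-Lys-TAMRA cleavage followed by FP (ex 530/em 575 nm) every 15 min for 1.5 h; normalised to no-compound control.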", "units": {"IC50": "nM"}}
{"smiles": "C[C@H](CC(=O)N1CCC(O)(Cn2cnc(NC[C@H]3CCCN3C)cc2=O)CC1)c1ccccc1", "note": "[Example 65, 3-((4-Hydroxy-1-((R)-3-phenylbutanoyl)piperidin-4-yl)methyl)-6-((((R)-1-methylpyrrolidin-2-yl)methyl)amino)pyrimidin-4(3H)-one, Formic Acid]", "IC50": "250 to 999"}
{"smiles": "C[C@H](CC(=O)N1CCC(O)(Cn2cnc(NC[C@@H]3CCCN3C)cc2=O)CC1)c1ccccc1", "note": "[Example 66, 3-((4-Hydroxy-1-((R)-3-phenylbutanoyl)piperidin-4-yl)methyl)-6-((((S)-1-methylpyrrolidin-2-yl)methyl)amino)pyrimidin-4(3H)-one, Formic Acid]", "IC50": "1000 to 200000"}
{"smiles": "C[C@H](CC(=O)N1CCC(O)(Cn2cnc3c(ncn3-c3ccc(CN)cc3)c2=O)CC1)c1ccccc1", "note": "[Example 68, (R)-9-(4-(Aminomethyl)phenyl)-1-((4-hydroxy-1-(3-phenylbutanoyl)piperidin-4-yl)methyl)-1H-purin-6(9H)-one]", "IC50": "< 250"}
{"smiles": "C[C@H](CC(=O)N1CCC(O)(Cn2cnc(NCCN3CCC[C@@H]3C)cc2=O)CC1)c1ccccc1", "note": "[Example 69, 3-((4-Hydroxy-1-((R)-3-phenylbutanoyl)piperidin-4-yl)methyl)-6-((2-((S)-2-methylpyrrolidin-1-yl)ethyl)amino)pyrimidin-4(3H)-one, Formic Acid]", "IC50": "< 250"}
{"smiles": "COC[C@H]1CCCN1CCNc1cc(=O)n(CC2(O)CCN(C(=O)C[C@@H](C)c3ccccc3)CC2)cn1", "note": "[Example 70, 3-((4-Hydroxy-1-((R)-3-phenylbutanoyl)piperidin-4-yl)methyl)-6-((2-((R)-2-(methoxymethyl)pyrrolidin-1-yl)ethyl)amino)pyrimidin-4(3H)-one]", "IC50": "1000 to 200000"}
{"smiles": "C[C@H]1CCN(CCNc2cc(=O)n(CC3(O)CCN(C(=O)C[C@@H](C)c4ccccc4)CC3)cn2)C1", "note": "[Example 71, 3-((4-Hydroxy-1-((R)-3-phenylbutanoyl)piperidin-4-yl)methyl)-6-((2-((S)-3-methylpyrrolidin-1-yl)ethyl)amino)pyrimidin-4(3H)-one, Formic Acid]", "IC50": "< 250"}
{"smiles": "Cc1nc2c(=O)n(CC3(O)CCN(C(=O)C[C@@H](C)c4ccccc4)CC3)cnc2n1-c1ccc(CN)cc1", "note": "[Example 72, (R)-9-(4-(Aminomethyl)phenyl)-1-((4-hydroxy-1-(3-phenylbutanoyl)piperidin-4-yl)methyl)-8-methyl-1H-purin-6(9H)-one]", "IC50": "< 250"}
{"smiles": "C[C@@H](N)c1ccc(-c2c3ncn(CC4(O)CCN(C(=O)C[C@H](c5ccccc5)C(F)(F)F)CC4)c(=O)c3nn2C)cc1", "note": "[Example 75, 3-(4-((R)-1-Aminoethyl)phenyl)-6-((4-hydroxy-1-((R)-4,4,4-trifluoro-3-phenylbutanoyl)piperidin-4-yl)methyl)-2-methyl-2H-pyrazolo[4,3-d]pyrimidin-7(6H)-one]", "IC50": "< 250"}
{"smiles": "C[C@H](N)c1ccc(-c2c3ncn(CC4(O)CCN(C(=O)C[C@H](c5ccccc5)C(F)(F)F)CC4)c(=O)c3nn2C)cc1", "note": "[Example 76, 3-(4-((S)-1-Aminoethyl)phenyl)-6-((4-hydroxy-1-((R)-4,4,4-trifluoro-3-phenylbutanoyl)piperidin-4-yl)methyl)-2-methyl-2H-pyrazolo[4,3-d]pyrimidin-7(6H)-one]", "IC50": "< 250"}
{"smiles": "NCc1ccc(-n2cnc3c(=O)n(CC4(O)CCN(C(=O)C[C@H](c5ccccc5)C(F)(F)F)CC4)cnc32)cc1", "note": "[Example 77, (R)-9-(4-(Aminomethyl)phenyl)-1-((4-hydroxy-1-(4,4,4-trifluoro-3-phenylbutanoyl)piperidin-4-yl)methyl)-1H-purin-6(9H)-one]", "IC50": "< 250"}
{"smiles": "Cc1nc2c(=O)n(CC3(O)CCN(C(=O)C[C@H](c4ccccc4)C(F)(F)F)CC3)cnc2n1-c1ccc(CN)cc1", "note": "[Example 78, (R)-9-(4-(Aminomethyl)phenyl)-1-((4-hydroxy-1-(4,4,4-trifluoro-3-phenylbutanoyl)piperidin-4-yl)methyl)-8-methyl-1H-purin-6(9H)-one]", "IC50": "< 250"}
{"smiles": "CN(C)Cc1ccc(-c2c3ncn(CC4(O)CCN(C(=O)C[C@H](c5ccccc5)C(F)(F)F)CC4)c(=O)c3nn2C)cc1", "note": "[Example 79, (R)-3-(4-((Dimethylamino)methyl)phenyl)-6-((4-hydroxy-1-(4,4,4-trifluoro-3-phenylbutanoyl)piperidin-4-yl)methyl)-2-methyl-2H-pyrazolo[4,3-d]pyrimidin-7(6H)-one]", "IC50": "< 250"}
{"smiles": "Cn1nc2c(=O)n(CC3(O)CCN(C(=O)C[C@H](c4ccccc4)C(F)F)CC3)cnc2c1-c1ccc(CN)cc1", "note": "[Example 80, (R)-3-(4-(Aminomethyl)phenyl)-6-((1-(4,4-difluoro-3-phenylbutanoyl)-4-hydroxypiperidin-4-yl)methyl)-2-methyl-2H-pyrazolo[4,3-d]pyrimidin-7(6H)-one]", "IC50": "< 250"}
{"smiles": "CC(C)c1cc(=O)n(CC2(O)CCN(C(=O)C[C@@H](C)c3ccccc3)CC2)cn1", "note": "[Example 81, (R)-3-((4-Hydroxy-1-(3-phenylbutanoyl)piperidin-4-yl)methyl)-6-isopropylpyrimidin-4(3H)-one]", "IC50": "1000 to 200000"}
{"smiles": "Cn1nc2c(=O)n(CC3(O)CCN(C(=O)C[C@H](c4ccccc4)C(F)(F)F)CC3)cnc2c1-c1ccc(CN)c(F)c1", "note": "[Example 82, (R)-3-(4-(Aminomethyl)-3-fluorophenyl)-6-((4-hydroxy-1-(4,4,4-trifluoro-3-phenylbutanoyl)piperidin-4-yl)methyl)-2-methyl-2H-pyrazolo[4,3-d]pyrimidin-7(6H)-one]", "IC50": "< 250"}
{"smiles": "CNCc1ccc(-c2c3ncn(CC4(O)CCN(C(=O)C[C@H](c5ccccc5)C(F)(F)F)CC4)c(=O)c3nn2C)cc1", "note": "[Example 83, (R)-6-((4-Hydroxy-1-(4,4,4-trifluoro-3-phenylbutanoyl)piperidin-4-yl)methyl)-2-methyl-3-(4-((methylamino)methyl)phenyl)-2H-pyrazolo[4,3-d]pyrimidin-7(6H)-one]", "IC50": "< 250"}
{"smiles": "Cn1nc2c(=O)n(CC3(O)CCN(C(=O)C[C@H](c4cc(F)cc(F)c4)C(F)(F)F)CC3)cnc2c1-c1ccc(CN)cc1", "note": "[Example 84, (R)-3-(4-(Aminomethyl)phenyl)-6-((1-(3-(3,5-difluorophenyl)-4,4,4-trifluorobutanoyl)-4-hydroxypiperidin-4-yl)methyl)-2-methyl-2H-pyrazolo[4,3-d]pyrimidin-7(6H)-one]", "IC50": "1000 to 200000"}
{"smiles": "Cn1nc2c(=O)n(CC3(O)CCN(C(=O)C[C@H](c4ccc(F)cc4)C(F)(F)F)CC3)cnc2c1-c1ccc(CN)cc1", "note": "[Example 85, (R)-3-(4-(Aminomethyl)phenyl)-6-((4-hydroxy-1-(4,4,4-trifluoro-3-(4-fluorophenyl)butanoyl)piperidin-4-yl)methyl)-2-methyl-2H-pyrazolo[4,3-d]pyrimidin-7(6H)-one]", "IC50": "< 250"}
{"smiles": "Cn1nc2c(=O)n(CC3(O)CCN(C(=O)C[C@H](c4ccccc4)C(F)(F)F)CC3)cnc2c1-c1ccc(CCN)cc1", "note": "[Example 87, (R)-3-(4-(2-Aminoethyl)phenyl)-6-((4-hydroxy-1-(4,4,4-trifluoro-3-phenylbutanoyl)piperidin-4-yl)methyl)-2-methyl-2H-pyrazolo[4,3-d]pyrimidin-7(6H)-one]", "IC50": "< 250"}
{"smiles": "Cn1nc2c(=O)n(CC3(O)CCN(C(=O)C[C@H](c4ccccc4)C(F)(F)F)CC3)cnc2c1-c1ccc(C2(N)CCC2)cc1", "note": "[Example 88, (R)-3-(4-(1-Aminocyclobutyl)phenyl)-6-((4-hydroxy-1-(4,4,4-trifluoro-3-phenylbutanoyl)piperidin-4-yl)methyl)-2-methyl-2H-pyrazolo[4,3-d]pyrimidin-7(6H)-one]", "IC50": "< 250"}
{"smiles": "CS(=O)(=O)c1nc2ncn(CC3(O)CCN(C(=O)CCc4ccccc4)CC3)c(=O)c2s1", "note": "[Example 92, 6-((4-Hydroxy-1-(3-phenylpropanol)piperidin-4-yl)methyl)-2-(methylsulfonyl)thiazolo[4,5-d]pyrimidin-7(6H)-one]", "IC50": "1000 to 200000"}
{"smiles": "CNc1nc2ncn(CC3(O)CCN(C(=O)CCc4ccccc4)CC3)c(=O)c2s1", "note": "[Example 93, 6-((4-Hydroxy-1-(3-phenylpropanoyl)piperidin-4-yl)methyl)-2-(methylamino)thiazolo[4,5-d]pyrimidin-7(6H)-one]", "IC50": "1000 to 200000"}
{"smiles": "Cn1nc2c(=O)n(CC3(O)CCN(C(=O)CCc4ccccc4)CC3)cnc2c1C(F)(F)F", "note": "[Example 95, 6-((4-Hydroxy-1-(3-phenylpropanoyl)piperidin-4-yl)methyl)-2-methyl-3-(trifluoromethyl)-2H-pyrazolo[4,3-d]pyrimidin-7(6H)-one]", "IC50": "1000 to 200000"}
{"biological_target": "USP7 (Homo sapiens (Human), UniProt Q93009)", "assay": "USP7 fluorescence polarisation (FP) biochemical assay, ubiquitin-Lys-TAMRA substrate", "conditions": "USP7 IC50, Table 4, biochemical assay; average of at least duplicate experiments", "outline": "as §1", "units": {"IC50": "nM"}}
{"smiles": "C[C@H](CC(=O)N1CCC(O)(Cn2cnc(NCCN3CC[C@@H](F)C3)cc2=O)CC1)c1ccccc1", "note": "[Example 73, 6-((2-((R)-3-Fluoropyrrolidin-1-yl)ethyl)amino)-3-((4-hydroxy-1-((R)-3-phenylbutanoyl)piperidin-4-yl)methyl)pyrimidin-4(3H)-one, Formic Acid]", "IC50": "250 to 999"}
{"smiles": "C[C@H](CC(=O)N1CCC(O)(Cn2cnc(NCCN3CC[C@H](F)C3)cc2=O)CC1)c1ccccc1", "note": "[Example 74, 6-((2-((S)-3-Fluoropyrrolidin-1-yl)ethyl)amino)-3-((4-hydroxy-1-((R)-3-phenylbutanoyl)piperidin-4-yl)methyl)pyrimidin-4(3H)-one, Formic Acid]", "IC50": "250 to 999"}
{"smiles": "C[C@H](CC(=O)N1CCC(O)(Cn2cnc(NCCN3Cc4cccc(F)c4C3)cc2=O)CC1)c1ccccc1", "note": "[Example 86, (R)-6-((2-(4-Fluoroisoindolin-2-yl)ethyl)amino)-3-((4-hydroxy-1-(3-phenylbutanoyl)piperidin-4-yl)methyl)pyrimidin-4(3H)-one, Formic Acid]", "IC50": "250 to 999"}
{"smiles": "O=C(C[C@H](c1ccccc1)C(F)F)N1CCC(O)(Cn2cnc(NCCN3CCCC3)cc2=O)CC1", "note": "[Example 89, (R)-3-((1-(4,4-Difluoro-3-phenylbutanoyl)-4-hydroxypiperidin-4-yl)methyl)-6-((2-(pyrrolidin-1-yl)ethyl)amino)pyrimidin-4(3H)-one, Formic Acid]", "IC50": "250 to 999"}
